Tested on: serotonin levels in rat ventral hippocampus
Assay: Microdialysis of serotonin levels in ventral hippocampus
Format: in vivo
Procedure: Male albino rats of a Wistar-derived strain (285-320 g; Harlan, Zeist, The Netherlands) were used for the experiments. Upon surgery, rats were housed individually in plastic cages (35×35×40 cm), and had free access to food and water. Animals were kept on a 12 h light schedule (light on 7:00 a.m.). The experiments are concordant with the declarations of Helsinki and were approved by the animal care committee of the faculty of mathematics and natural science of the University of Groningen.
The following drugs were used: Citalopram hydrobromide and NFPS having the structure: [drawing 3] (LU 2736N) (Lundbeck A/S, Copenhagen, Denmark). Drugs were dissolved in saline and administered s.c. Surgery […]
Twenty-μl microdialysate samples were injected via an autoinjector (CMA/200 refrigerated microsampler, CMA, Sweden) onto a 100×2.0 mm C18 Hypersil 3 μm column (Bester, Amstelveen, the Netherlands) and separated with a mobile phase consisting of 5 g/L di-ammoniumsulfate, 500 mg/L EDTA, 50 mg/L heptane sulphonic acid, 4% methanol v/v, and 30 μl/L of triethylamine, pH 4.65 at a flow of 0.4 ml/min (Shimadzu LC-10 AD). 5-HT was detected amperometrically at a glassy carbon electrode at 500 mV vs Ag/AgCl (Antec Leyden, Leiden, The Netherlands). […]

CN(CCC(Oc1ccc(-c2ccccc2)cc1)c1ccc(F)cc1)CC(=O)O (centres unmarked) [NFPS]
augmentation of the effect of citalopram on hippocampal serotonin levels (NFPS 10 μmol/kg s.c. co-administered with citalopram 10 μmol/kg s.c., Treatment P=0.044, Treatment vs. Time P=0.033): significantly augmented the effect of citalopram
effect on serotonin levels in rat ventral hippocampus (NFPS alone, 10 μmol/kg s.c., microdialysis, Wistar rats): did not induce any significant effects
